Laboratory results as given in ChEMBL document CHEMBL1151930, “Physicochemical determinants of human renal clearance” (J Med Chem, 2009).

assay: clinical; settings: human, in vivo

In order of rising CL renal:
1. Cc1cc(=O)n(-c2ccccc2)n1C [ANTIPYRINE]  0.02 mL/min/kg
2. CCOC(=O)c1ncn2c1CN(C)C(=O)c1cc(F)ccc1-2 [FLUMAZENIL]  0.03 mL/min/kg
3. O=C(O)CCCc1ccc(N(CCCl)CCCl)cc1 [CHLORAMBUCIL]  0.03 mL/min/kg
4. CCCN(CCC)S(=O)(=O)c1ccc(C(=O)O)cc1 [PROBENECID]  0.03 mL/min/kg
5. CC(C(=O)O)c1ccc(C(=O)c2cccs2)cc1 (configuration not stated) [SUPROFEN]  0.04 mL/min/kg
6. O=C1Cc2cc(CCN3CCN(c4nsc5ccccc45)CC3)c(Cl)cc2N1 [ZIPRASIDONE]  0.05 mL/min/kg
7. Cn1c(=O)c2[nH]cnc2n(C)c1=O.O [THEOPHYLLINE]  0.09 mL/min/kg
8. CCN(C)C(=O)Oc1cccc([C@H](C)N(C)C)c1 [RIVASTIGMINE]  0.12 mL/min/kg
9. CCCCC(=O)N(Cc1ccc(-c2ccccc2-c2nnn[nH]2)cc1)[C@H](C(=O)O)C(C)C  0.14 mL/min/kg
10. Cc1ncc([N+](=O)[O-])n1CCO [METRONIDAZOLE]  0.19 mL/min/kg
11. CCOC(=O)C1=C(C)NC(C)=C(C(=O)OC)C1c1cccc([N+](=O)[O-])c1 (configuration not stated) [NITRENDIPINE]  0.25 mL/min/kg
12. CCOC(=O)C1(c2ccccc2)CCN(C)CC1 [MEPERIDINE]  0.25 mL/min/kg
13. CCN[C@@H]1C[C@H](N)[C@@H](O[C@H]2OC(CN)=CC[C@H]2N)[C@H](O)[C@H]1O[C@H]1OC[C@](C)(O)[C@H](NC)[C@H]1O [NETILMICIN]  0.28 mL/min/kg
14. CC(=O)O[C@@]12CO[C@@H]1C[C@H](O)[C@@]1(C)C(=O)[C@H](O)C3=C(C)[C@@H](OC(=O)[C@H](O)[C@@H](NC(=O)OC(C)(C)C)c4ccccc4)C[C@@](O)([C@@H](OC(=O)c4ccccc4)[C@H]21)C3(C)C.O.O.O [DOCETAXEL]  0.29 mL/min/kg
15. CC[C@H]1OC(=O)[C@H](C)[C@@H](O[C@H]2C[C@@](C)(OC)[C@@H](O)[C@H](C)O2)[C@H](C)[C@@H](O[C@@H]2O[C@H](C)C[C@H](N(C)C)[C@H]2O)[C@](C)(O)C[C@@H](C)C(=O)[C@H](C)[C@@H](O)[C@]1(C)O [ERYTHROMYCIN]  0.34 mL/min/kg
16. COC(=O)[C@H]1[C@@H](OC(=O)c2ccccc2)C[C@@H]2CC[C@H]1N2C [COCAINE]  0.4 mL/min/kg
17. CCCCCN(CCCOC)C(=O)[C@@H](CCC(=O)O)NC(=O)c1ccc(Cl)c(Cl)c1 [DEXLOXIGLUMIDE]  0.41 mL/min/kg
18. CCC[C@@H]1C[C@@H](C(=O)N[C@@H]([C@H]2O[C@H](SC)[C@H](O)[C@@H](O)[C@H]2O)[C@H](C)Cl)N(C)C1 [CLINDAMYCIN]  0.62 mL/min/kg
19. COc1ccc(C(CN(C)C)C2(O)CCCCC2)cc1 (configuration not stated) [VENLAFAXINE]  0.64 mL/min/kg
20. COc1ccc(C(=O)Nc2ccccc2CCC2CCCCN2C)cc1 (configuration not stated) [ENCAINIDE]  0.78 mL/min/kg
21. Cc1cccc(C)c1OCC(C)N (configuration not stated) [MEXILETINE]  0.83 mL/min/kg
22. CCCCNc1cc(C(=O)O)cc(S(N)(=O)=O)c1Oc1ccccc1 [BUMETANIDE]  0.85 mL/min/kg
23. COc1cccc(C2(O)CCCCC2CN(C)C)c1 (configuration not stated) [TRAMADOL]  0.98 mL/min/kg
24. CCOc1ccc2ccccc2c1C(=O)N[C@@H]1C(=O)N2[C@@H]1SC(C)(C)[C@@H]2C(=O)O [NAFCILLIN]  1.03 mL/min/kg
25. COCC(=O)Nc1c(I)c(C(=O)NCC(O)CO)c(I)c(C(=O)N(C)CC(O)CO)c1I (configuration not stated) [IOPROMIDE]  1.37 mL/min/kg
26. CN1CCN(c2c(F)cc3c(=O)c(C(=O)O)cn(CCF)c3c2F)CC1 [FLEROXACIN]  1.49 mL/min/kg
27. O=C(O)P(=O)(O)O [FOSCARNET]  1.68 mL/min/kg
28. N[C@@H](C(=O)N[C@@H]1C(=O)N2C(C(=O)O)=C(CSc3c[nH]nn3)CS[C@H]12)c1ccc(O)cc1 [CEFATRIZINE]  2.64 mL/min/kg
29. C[C@H](Cn1cnc2c(N)ncnc21)OCP(=O)(O)O [TENOFOVIR ANHYDROUS]  2.7 mL/min/kg
30. CC[C@H]1OC(=O)[C@H](C)C(=O)[C@H](C)[C@@H](O[C@@H]2O[C@H](C)C[C@H](N(C)C)[C@H]2O)[C@](C)(OC)C[C@@H](C)C(=O)[C@H](C)[C@H]2N(CCCCn3cnc(-c4cccnc4)c3)C(=O)O[C@]12C [TELITHROMYCIN]  3.14 mL/min/kg
31. Cc1cn([C@H]2C=C[C@@H](CO)O2)c(=O)[nH]c1=O [STAVUDINE]  3.53 mL/min/kg
32. CN(C)C(=N)N=C(N)N [METFORMIN]  7.4 mL/min/kg
